Source: patent US20220195461A1, “METHODS AND COMPOSITIONS FOR TRANSGENE EXPRESSION” (priority 2019, published 2022)

System: CF (HBE and HTE, dF508/dF508, Passage 0) cells
Experiment: LDH activity (toxicity) of AV.TL65 plus proteasome inhibitor versus AAV alone
Assay type: cell-based, human
Conditions: for LDH (toxicity) activity compared to AAV without a proteasome inhibitor: augmenter + AV.TL65-gLuc-mCherry, 4 days after infection (FIG. 1B); for toxicity of the enhancement: augmenter combined with AV.TL65Luciferase-mCherry, ALI HBE cultures; for LDH relative to baseline: passage 0 (P0) cells
Source text: FIGS. 1A and 1B are a series of graphs showing the ratio of luciferase activity in cells treated with AV.TL65+proteasome inhibitor (PI) versus AAV alone (FIG. 1A) and the ratio of LDH activity in cells treated with AV.TL65+PI versus AAV alone (FIG. 1B). […] Relative Luminescence Units in CF HBE treated with AV.TL65 with PI exceeded 200-fold of AV.TL65 without PI. Toxicity of AV.TL65 with PI as measured by LDH activity was mostly below 150% of AV.TL65 without PI.
We have generated a novel AAV vector featuring a capsid that is highly efficient at transducing human airway epithelium in the apical membrane. Specifically, we have used AV.TL65-SP183-CFTRΔR to deliver an R-domain-partially-deleted CFTR minigene and AV.TL65Luciferase-mCherry, a dual reporter vector, to express luciferase and fluorescent mCherry protein. The AV.TL65-SP183-CFTRΔR rAAV vector included a polynucleotide comprising: a 5′ AAV ITR comprising the sequence of SEQ ID NO:15, an F5 enhancer comprising the sequence of SEQ ID NO:14 (which may include a 5′ EcoRI site and a 3′ XhoI site, as in SEQ ID NO:1), a tg83 promoter comprising the sequence of SEQ ID NO:2, a 5′ UTR comprising the sequence of SEQ ID NO:3, a hCFTRΔR minigene comprising the sequence of SEQ ID NO:4, a 3′ UTR comprising the sequence of SEQ ID NO:5, a s-pA comprising the sequence of SEQ ID NO:6, and a 3′ AAV ITR comprising the sequence of SEQ ID NO:16. For example, the packaged polynucleotide may include the sequence of SEQ ID NO:17. […] We have shown that combining AV.TL65Luciferase-mCherry with doxorubicin or idarubicin provides non-toxic enhancement of luciferase expression by more than 600-fold of air-liquid interface (ALI) human bronchial epithelial (HBE) cultures from 5 separate CF (homozygous dF508/dF508 CFTR) and non-CF donors compared to AV.TL65Luciferase-mCherry without proteasome inhibitor. In another experiment, doxorubicin and idarubicin+AV.TL65-gLuc-mCherry improved transduction over AAV without a proteasome inhibitor by over 200-fold (FIG. 1A, dashed line). Doxorubicin added to AV.TL65-gLuc-mCherry but not idarubicin had less than 150% LDH (toxicity) activity compared to AAV without a proteasome inhibitor (FIG. 1B; dashed line). Transduction efficiency gains in passage 0 (PO) cells were well above 200-fold better with doxorubicin and idarubicin with LDH <1.5× baseline for doxorubicin and >1.5× baseline for idarubicin.

COc1cccc2c1C(=O)c1c(O)c3c(c(O)c1C2=O)C[C@@](O)(C(=O)CO)C[C@@H]3O[C@H]1C[C@H](N)[C@H](O)[C@H](C)O1 [doxorubicin]
LDH (toxicity) activity compared to AAV without a proteasome inhibitor: less than 150% | toxicity of the enhancement: non-toxic | LDH relative to baseline: < 1.5 × baseline

CC(=O)[C@]1(O)Cc2c(O)c3c(c(O)c2[C@@H](O[C@H]2C[C@H](N)[C@H](O)[C@H](C)O2)C1)C(=O)c1ccccc1C3=O [idarubicin]
LDH (toxicity) activity compared to AAV without a proteasome inhibitor: ≥ 150% | toxicity of the enhancement: non-toxic | LDH relative to baseline: > 1.5 × baseline
